Values joined by “and” are separate entries in the source; they are usually repeats but may differ in a detail not shown here. Identical values can stand only once. “Also recorded” adds a separate entry of the source.
Key:
Male Sprague-Dawley rats [1] = assay: Sustained i.v. infusion of diuretics in conscious catheterised rats: dose response, combinations, renal clearance (Example 2); format: in vivo, rat; details: for Equidiuretic dose / dose at which the maximum diuretic effect was reached / diuretic effect (urine flow) / Potassium excretion: sustained i.v. infusion; for dose at which the maximum diuretic effect was reached / diuretic effect (urine flow) / Potassium excretion: dose response; for diuretic effect (urine flow) / Potassium excretion: single agents
Procedure: Male Sprague-Dawley rats were obtained from Charles River Labs (Wilmington, Del.). They were housed in a light-controlled room with a 12 h light/dark cycle and were allowed ad libitum access to food and water.
Catheters were implanted in the abdominal aorta and vena cava via the left femoral artery and vein under a mixture of ketamine hydrochloride (50 mg/kg) and acepromazine (0.2 mg/kg, i.m.) anesthesia. An additional medical grade Tygon tubing was placed in the he stomach at the left extremity of the greater curvature. A silastic-covered stainless steel cannula was implanted in the bladder. Details of surgery, pre and post-surgical care and the experimental set-ups have been described in detail previously (87). Experiments were conducted 4-5 days following surgery, by which time the rats had fully recovered and were gaining weight. During the recovery, the rats were housed individually and were accustomed to a plastic retainer (model ECU, Braintree Scientific, Inc., Braintree, Mass.).
Between 8:00-9:00 AM, rats were weighed and placed in the restrainer. The arterial line was connected to a Gilson polygraph via a Gould pressure transducer for the recording of blood pressure (MAP) and heart rate (HR); the venous line to infusion pumps for the infusion of vehicle and test agents; and the stomach tube to a 10 or 20 cc syringe to allow for the replacement of excess urinary loss. The bladder cannula was extended with a short length of PE tubing to permit collection of urine into preweighed tubes.
To replace normal fluid and electrolytes loss, heparinized (50 U/ml) ringer's solution was infused throughout the experiment via the arterial line and 5% dextrose during the equilibration and control period via the venous line, each at 10 μl/min. When excess fluid loss reached 2 ml, it was replaced via the gastric tube with room temperature Ringer's solution. A period of 45-60 min was allowed for equilibration in all studies, at the end of which a 0.5 ml blood sample was taken for measurement of hematocrit, plasma electrolytes and creatinine. This was followed by the various experimental procedures described below.
Group 1. Sustained I.V. infusion of diuretic agents. Urine was collected in 5 min periods throughout the experimental period. After equilibration, 3 collections were made to establish baseline. thirty min urine collections were made before and during infusion of test agent. […] At the end of experiments, the rats were weighed again and returned to their home cages.
Group 2. Sustained i.v. infusion of combinations diuretics. […] After the termination of infusion, urine flow was allowed to return to baseline, approximately 15-20 min. The rats were then weighed and returned to their home cages.
Group 3. […] (10%) and PAH (2%) were infused i.v. at 20 μl/min from the start. IN order to establish baseline values, two 20 min urine collections were performed following equilibration. One blood sample (500 μl) was taken in the middle of the second collection.
Urinary and plasma concentrations of […] and PAH were determined by spectrophotometry, electrolyte concentrations were measured using the Synchron ASB Clinical System (Beckman Instr. Inc., Brea, Calif.) and osmolality by an automatic osmometer (Model 2430, Precision Systems, Inc., Natick, Mass.). Renal clearance values were calculated using standard clearance formulae and expressed per 100 g body weight.
All values represent maximal changes, expressed as absolute values, and are reported throughout as group means+−SEM. Data from the does-response studies (groups 1-5) were analyzed using an analysis of variance for repeated measures, post-hoc comparisons were made with the Schette f-test. Analysis of variance (ANOVA) was used to analyze differences between the effects of various diuretics and their combinations (group 6) and the renal clearance data (group 7). A value of P<0.05 was considered statistically significant.

Male Sprague-Dawley rats [2] = assay: Natriuretic response to oral dosing in rats in metabolic cages (Examples 3, 5, 6); format: in vivo, rat; details: once-daily gavage, Days 1-5, furosemide 100 mg/kg or BG9719 1 mg/kg; urine 4 hours after dosing
Procedure: Urines were collected for 4 hours post dosing and the natriuretic response was determined. The data are expressed as uEq/hr.
FIG. 8: In the same rats from FIG. 7, we collected urine for 4 hours after dosing.
Twenty four male Sprague-Dawley rats were placed in metabolic cages to collect urines in order to assess the natriuretic response to orally administered compounds. […] Urines were collected for 4 hours after dosing. Urine volume was determined gravimetrically and urinary sodium concentration was determined by flame photometry.
The rats shown in Example 4 were placed in metabolic cages on Days 1 through 5 of dosing and urine was collected for 4 hours after dosing. Urine volume was determined gravimetrically and urinary sodium concentration was determined by flame photometry.
They were placed in metabolic cages and urines were collected for four hours after dosing. Urine volume was determined gravimetrically and urinary sodium concentration was determined by flame photometry.

Male Sprague-Dawley rats [3] = assay: Renal function of anesthetized rats after 0-3 days of furosemide, before and after BG9719 IV (Example 7); format: in vivo, rat
Procedure: Twenty four hours after their last dose, they were anesthetized and instrumented to measure renal function and hemodynamics.
We collected a 30 minute baseline urine and determined basal sodium excretion in these rats.
Twenty-four hours after the last dose was administered, the rats were anesthetized and instrumented to measure renal function. […] Urine was collected via an implanted bladder catheter.

[4] = tested on: patients with NYHA Class II or III CHF; assay: Renal function in CHF patients after single intravenous dose (Example 1); details: 0-2 hours, mean, single i.v. dose
adenosine A1 receptor [5] = biological target: T1, adenosine A1 receptor (Homo sapiens, UniProt P30542); details: other adenosine A1 receptor antagonists; cited from earlier work
T1 sequence (P30542 1-326): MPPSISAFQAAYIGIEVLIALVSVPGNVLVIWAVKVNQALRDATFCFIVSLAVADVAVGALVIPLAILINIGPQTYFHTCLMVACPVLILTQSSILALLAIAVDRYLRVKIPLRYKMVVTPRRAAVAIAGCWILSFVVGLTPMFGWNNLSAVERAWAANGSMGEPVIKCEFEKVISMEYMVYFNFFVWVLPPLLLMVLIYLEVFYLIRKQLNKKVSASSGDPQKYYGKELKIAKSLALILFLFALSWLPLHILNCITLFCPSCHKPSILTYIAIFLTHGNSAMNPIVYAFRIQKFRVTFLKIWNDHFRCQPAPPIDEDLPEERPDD

adenosine A1 receptor [6] = biological target: T1, adenosine A1 receptor; assay: IC50 for the adenosine A1 receptor; format: binding
Micropuncture studies = format: in vivo; details: following administration of BG9719
[7] = renal clearance study, FUR 10 μg/kg/min i.v. for 90 min

NS(=O)(=O)c1cc(C(=O)O)c(NCc2ccco2)cc1Cl [furosemide]
GFR (Male Sprague-Dawley rats [1]; [7]): significantly lowered
RBF (Male Sprague-Dawley rats [1]; [7]): significantly lowered
Equidiuretic dose (Male Sprague-Dawley rats [1]): 10 µg/kg/min
dose at which the maximum diuretic effect was reached (Male Sprague-Dawley rats [1]): 100 µg/kg/min
diuretic effect (urine flow) (Male Sprague-Dawley rats [1]): twice as a potent diuretic as BG9719
natriuretic response on repeated dosing (Male Sprague-Dawley rats [2]): diminishes on repeated dosing
basal GFR (Male Sprague-Dawley rats [3]; after 1 day of furosemide 100 mg/kg orally): relatively normal; also recorded: fairly normal
Urine volume [4]: increased and 1081 mL

CCCn1c(=O)c2[nH]c(C34CC5CC(CC3C5)C4)nc2n(CCC)c1=O [KW 3902]
A1 vs. A2 selectivity (adenosine A1 receptor [5]): 150 fold

CCCn1c(=O)c2nc(C3CC4CC3C3OC43)[nH]c2n(CCC)c1=O [BG9719, 1,3-dipropyl-8-[5,6-exo-epoxy)-2(S) norbornyl] xanthine]
IC50 (adenosine A1 receptor [6]): 1.15 nM
increase in GFR (Male Sprague-Dawley rats [1]; renal clearance study, 1 μg/kg/min i.v. for 90 min, not statistically significant): 13%
absolute and fractional excretions of sodium (Male Sprague-Dawley rats [1]; renal clearance study, BG9719 1 or FUR 10 μg/kg/min i.v. for 90 min): increased
total urine output (Male Sprague-Dawley rats [1]; representative animal of FIG. 1, i.v. infusion 0.3-10 μg/kg/min): 23.8 mL
Equidiuretic dose (Male Sprague-Dawley rats [1]): 1 µg/kg/min
dose at which the maximum diuretic effect was reached (Male Sprague-Dawley rats [1]): 3 µg/kg/min
Potassium excretion (Male Sprague-Dawley rats [1]): not
diuretic effect (urine flow) (Male Sprague-Dawley rats [1]): does-dependent increase in urine flow
natriuretic response on repeated dosing (Male Sprague-Dawley rats [2]): maintained across multiple dosing days
GFR after dosing in Day 3 furosemide rats (Male Sprague-Dawley rats [3]; BG9719 0.1 mg/kg IV after 3 days furosemide): recover to a level not different than normal rats
urinary sodium excretion (UNaV) after dosing (Male Sprague-Dawley rats [3]; BG9719 0.1 mg/kg IV, control rats and 3 Day Furo rats): reaches maximum within the first fifteen minutes
GFR after dosing versus baseline (Male Sprague-Dawley rats [3]; BG9719 0.1 mg/kg IV, rats with 0-3 days furosemide): increases in all groups
tubular flow rates (Micropuncture studies): increased flow rates in both the proximal and distal tubules

NS(=O)(=O)c1cc2c(cc1Cl)NCNS2(=O)=O [HCTZ, hydrochlorothiazide]
Equidiuretic dose (Male Sprague-Dawley rats [1]): 30 µg/kg/min
dose at which the maximum diuretic effect was reached (Male Sprague-Dawley rats [1]): 20 µg/kg/min
Potassium excretion (Male Sprague-Dawley rats [1]): significantly increased
diuretic effect (urine flow) (Male Sprague-Dawley rats [1]): only minor effects

From patent US6818647B2, “Method and composition for restoring diuretic and renal function” (CV Therapeutics, Inc, priority 1998, dated 2004)
